Test results published in paper PMC7391726, “Fatty acid mimetic PBI-4547 restores metabolic homeostasis via GPR84 in mice with non-alcoholic fatty liver disease” (Scientific Reports, 2020).

System: HFD-fed WT mice
Test: High-fat diet (HFD) mouse model of obesity/NAFLD, WT mice
Type: in vivo
From the text: The well-established high-fat diet (HFD) mouse model of obesity was used to study the impact of PBI-4547 on the onset and progression of NAFLD. A 14-week HFD regimen led to significant weight gain in both male and female mice. […] Moreover, PBI-4547 decreased serum triglycerides while enhancing adiponectin levels. […] Of note, the effects of PBI-4547 on bodyweight, food consumption, glucose tolerance, fasting blood glucose, insulin resistance and HOMA-β indices were absent in standard diet-fed mice (Table S1).
Total cholesterol levels were measured using the HDL/LDL/VLDL Cholesterol Assay kit (Abcam) according to manufacturer’s protocol. […] Liver triglycerides were extracted using a modified version of the Folch protocol[49]^, then quantified using a triglyceride colorimetric kit (Cayman Chemical).
WT or Gpr84^−/− mice, as previously described, (aged 10–14 weeks at the beginning of the experiment) were either fed a standard diet (STD) or a high-fat diet (HFD) (Envigo #TD.06414) for 14 weeks. At this point, mice were administered either vehicle (water) or PBI-4547 (10 mg/kg) on a daily basis for 6 (WT study) or 8 (WT vs KO study) weeks by gastric gavage, and were sacrificed thereafter. Liver and WAT tissues were fixed in 10% formalin for histological analyses or flash frozen in liquid nitrogen for RT-PCR analyses. All animal studies were reviewed and approved by the animal care and use committee of the Institut National de la Recherche Scientifique – Armand-Frappier (Laval, QC, Canada) and the University of Ottawa’s Animal Care and Veterinary Services (Ottawa, ON, Canada). Protocols were approved and undertaken according to the Canadian Council on Animal Care guidelines.
Oral glucose tolerance tests (OGTT) were completed 6 weeks after beginning of the treatments. Briefly, mice were fasted for 4–6 h, given a bolus of glucose at […] BW orally, and blood glucose values measured at 0, 15, 30, 60, 120 min. In parallel, a blood sample was obtained at 0, 15, 60 and 120 min for insulin quantification by ELISA (EMD Millipore).
After fixation in formalin, iWAT (inguinal), eWAT (epididymal) and liver sections were embedded in paraffin. Thin section of […] were stained with Hematoxylin and Eosin or Sirius red for analyses. WAT collagen deposition and liver characteristics of NAFLD were quantified histologically by a pathologist (R.C.) in a double-blinded manner. Liver histology was performed on H&E stained slides. WAT collagen deposition was scored using Picro Sirius-Red stained slides. Immunofluorescence-detection of α-SMA in liver sections was performed. Briefly, samples were deparaffinized in a series of xylenes, rehydrated in graded alcohols followed by an antigen-unmasking step by microwaving in Tris-buffer (pH 8.2). Sections were blocked with 10% donkey serum (Vector labs), 1% bovine serum albumin (Sigma) in PBS + 1%Tween for 1 h at room temperature. Slides were incubated overnight at 4 °C with an anti-mouse smooth muscle α-Actin antibody (1:300; Santa Cruz, clone #1A4). Secondary detection was performed using a donkey anti-mouse Alexa Fluor 594 (1:500; Molecular Probes), incubated for 1 h at room temperature. Slides were dehydrated and mounted with fluorescent antifade media containing DAPI (Vector labs). Images were taken at 100X and 200X magnification and representative images are shown.
RNA was extracted and purified as previously described. Real-time quantitative PCR was performed on a CFX96 Touch Real-Time PCR Detection System (Bio-Rad) using TaqMan gene expression assays (Fisher Scientific). qPCR data were analyzed using the 2-^ΔΔCt method, using Gapdh and Hprt as endogenous control. RT-qPCR data were reported as Geometric means ± SEM.
A portion of hepatic tissue (50 mg) was mechanically homogenized in 1 mL H2O/CH3CN (1/1) using a PowerGen 125 homogenizer (Fisher Scientific). The homogenates were centrifuged for 10 min at 5,000×g at 4 °C. Hydrophilic metabolites were lyophilized to remove water for NMR experiments. […]

[1] = HFD mice, 1H-NMR liver metabolomics

In the case of `CCCCCc1cc(CCCCC)cc(CC(=O)[O-])c1.[Na+]` [PBI-4547, 2-[3,5-dipentylphenyl]acetate sodium salt], the HOMA-IR index (HFD mice, 10 mg/kg daily) is reported as “decreased by PBI-4547 to the STD group level”, the “degree of hepatic inflammation (histology)” value (HFD mice, 10 mg/kg daily) is reported as “remained unchanged” and the disposition index (HFD mice, 10 mg/kg daily) is reported as “remained unchanged”. The fasting insulin levels (HFD mice, 10 mg/kg daily) was “lowered”, the “hepatic ballooning (histology)” value (HFD mice, 10 mg/kg daily) was “markedly reduced” and the “hepatic steatosis (histology)” value (HFD mice, 10 mg/kg daily) was “markedly reduced”. The liver total cholesterol (HFD mice, 10 mg/kg daily) was “without affecting”, the liver triglyceride levels (HFD mice, 10 mg/kg daily) was “reduced” and the “oral glucose tolerance test (OGTT)” value (HFD mice, 10 mg/kg daily) was “better glycemic control”. The “overall NAFLD score” value (HFD mice, 10 mg/kg daily) was “significantly improving”, the serum adiponectin levels (HFD mice, 10 mg/kg daily) was “enhancing” and the serum triglycerides (HFD mice, 10 mg/kg daily) was “decreased”. For the same molecule, the organ weight (HFD mice, 10 mg/kg daily by gavage) was “without affecting”, the bodyweight (HFD mice, 10 mg/kg daily by gavage, 5 weeks after beginning of treatment) was “significant reduction” and the fasting blood glucose (HFD mice, 10 mg/kg daily, after 6 weeks of treatment) was “decreased”. For the same molecule, the “hepatic dysregulation of key amino acids and citric acid cycle intermediates (metabolomics)” value [1] was “corrected”, the “hepatic energy metabolism intermediates (metabolomics)” value [1] was “restored back to normal levels” and the “maximum diameter or average size of adipocytes” value (HFD mice, WAT morphometric analysis) was “did not affect”. The “WAT expression of Pgc1a and Ucp1” value (HFD mice, WAT qRT-PCR) was “induced”, the “WAT expression of resistin and glucose transporters Slc2a2, Slc2a4” value (HFD mice, WAT qRT-PCR) was “increased” and the “WAT expression of vaspin (Serpina12)” value (HFD mice, WAT qRT-PCR) was “completely abolished”. For the same molecule, the “WAT mRNA of pro-fibrotic (Cola1, Ctgf, Mmp2, Timp1) and pro-inflammatory (Il6, Ccl2) genes” value (HFD mice, WAT qRT-PCR) was “downregulated”, the “NAD+ in liver” value (HFD mice, liver metabolomics) was “restored high levels” and the “hepatic Ucp2 and Ucp3 expression” value (HFD mice, qRT-PCR) was “highly upregulated”. For the same molecule, the “hepatic expression of FA metabolism genes Acox1, Cpt1b, Pdk4, Hadha, Cd36” value (HFD mice, qRT-PCR) was “strong upregulation”, the “hepatic expression of glucose metabolism genes Pklr, G6pc, Slc2a2” value (HFD mice, qRT-PCR) was “normalized” and the “liver Adipor2 expression” value (HFD mice, qRT-PCR) was “downregulated”. The “liver Ctgf mRNA levels” value (HFD mice, qRT-PCR) was “significantly decreased”, the “liver Mmp2 mRNA levels” value (HFD mice, qRT-PCR) was “significantly decreased” and the “liver Retn (resistin) expression” value (HFD mice, qRT-PCR) was “restored to normal levels”. The “liver Serpina12 (vaspin) expression” value (HFD mice, qRT-PCR) was “downregulated”, the liver pro-inflammatory genes (HFD mice, qRT-PCR) was “not modulated” and the “WAT extent of interstitial fibrosis” value (HFD mice, white adipose tissue) was “decreased”. The “WAT immune cell infiltration” value (HFD mice, white adipose tissue) was “decreased”, the serum total cholesterol (HFD mice, after four weeks of treatment) was “returned to similar level as in the HFD group” and the serum total cholesterol (HFD mice, after two weeks of treatment) was “slightly increased”. For the same molecule, the HOMA-IR index (WT vs KO study, HFD-fed WT) was “reduced”, the “WAT mean adipocyte diameters and area” value (WT vs KO study, HFD-fed WT) was “remained unchanged” and the “fasting blood glucose levels” value (WT vs KO study, HFD-fed WT) was “downregulated”. For the same molecule, the insulin levels (WT vs KO study, HFD-fed WT) was “reduced”, the liver glycogen levels (WT vs KO study, HFD-fed WT) was “increased” and the serum adiponectin (WT vs KO study, HFD-fed WT) was “upregulated”. The serum cholesterol levels (WT vs KO study, HFD-fed WT) was “remained unchanged”, the serum triglyceride levels (WT vs KO study, HFD-fed WT) was “lowered” and the “α-SMA positive liver staining (immunofluorescence)” value (WT vs KO study, HFD-fed WT) was “dramatic drop”. For the same molecule, the bodyweight (WT vs KO study, HFD-fed WT, 10 mg/kg daily, 8 weeks) was “decreased”, the OGTT (WT vs KO study, HFD-fed WT, after 6 weeks) was “significant effect” and the “AMPK phosphorylation levels in the liver” value (data not shown) was “promote”.
